“And” between values parts separate entries of the source, which are not always exact repeats. Identical values can stand only once. Non-standard residues stand in square brackets, D forms with d. Residues, ends and D or L forms follow the SMILES beside them. pGlu = O=C1CC[C@@H](C(=O)O)N1
What was measured:
[1] = tested on: Carausius morosus; conditions: in vivo bioassay, stick insect; cited from earlier work
Source text: C. morusus produces decapeptide AKHs that function optimally via the Carmo-AKHR. Two shorter bioanalogs with high identity to Carmo-HrTH were available for testing in the receptor activation assay: Triin-AKH, an amidated nonapeptide that ends in Gly^9 and the amidated octapeptide, Peram-CAH-II that ends in Trp^8. These peptides produced receptor activation curves with EC50 values similar to those of the endogenous AKH peptides ( Table 2 ). Taken on its own, this may indicate that the C-terminal amino acids of Carmo-HrTH (thus Thr^10 and Gly^9) are not critical for activation of Carmo-AKHR, and ... || Replacing the aromatic amino acids, Phe^4 or Trp^8 that are iconic for most natural members of the AKH family, with a nonpolar amino acid like Ala, completely abolished receptor activation in the current in vitro study. Earlier in vivo investigations on L. migratoria ([58]), as well as AKH/RPCH ligand-receptor model studies on S. gregaria and D. pulex made it clear that these two aromatic residues are critical for receptor binding ([55], [56]). […] Clearly, this position in the AKH ligand appear ...

[2] = tested on: Carausius morosus AKH receptor (Carmo-AKHR); assay: Calcium bioluminescence (aequorin) reporter assay, CHO-K1 cells stably expressing Carmo-AKHR; assay type: cell-based; conditions: for EC50: CHO-K1 stably expressing Carmo-AKHR, transiently aequorin, luminescence measured 20 s, from dose-response activation curves, 3 to 4 independent biological replicates, normalized to ATP maximum, read-out: EC50 value; for Fold-reduction in activity (receptor activation relative to Carmo-HrTH-II): ratio of EC50 relative to Carmo-HrTH-II
Method: Functional activation of Carmo-AKHR was carried out by following mammalian cell culture procedures as previously described ([20], [29]) with the following modifications. […] At 24 h post-transfection, cells were selected in DMEM:F12 media containing 10% heat-inactivated fetal bovine serum (Wisent, St. Bruno, QC), 1x antimycotic-antibiotic and 600 μg/mL geneticin (G418) until clonal recombinant cells were evident in transfected cells while no live cells were present in non-transfected CHO-K1 cells (control). Individual clonal recombinant colonies were seeded into separate wells of a 96 well cell-culture dish (Sarstedt Inc., Montreal, QC) and grown to confluence while maintaining geneticin selection. To identify clonal recombinant lines with optimal Carmo-AKHR activity yielding the greatest signal-to-noise ratio, individual clonal recombinant lines were assayed in the bioluminescence reporter assay as described previously ([30]). […] The recombinant cell line showing the optimal luminescent response with greatest signal-to-noise ratio was expanded for preparation of cryo-stocks and subsequent detailed investigation of receptor specificity. […] Bruno, QC), 250 μg/mL Geneticin (MilliporeSigma Canada Ltd., Oakville, ON) and 1X antimycotic-antibiotic (ThermoFisher Scientific, Whitby, ON). […] Transfection was completed with PolyJetTM DNA In Vitro Transfection Reagent (FroggaBio, Toronto, ON) following manufacturer recommendations for transfection of adherent cells. At 48 hours post-transfection, cells were detached from culture flasks using Dulbecco's PBS (Wisent, St. Bruno, QC) containing 5 mM Ethylenediaminetetraacetic acid (EDTA) and were prepared for the functional assay as previously described ([30]). […] Immediately after injection of the cells into each well, luminescence was measured for 20 s using a Synergy 2 Multi-Mode Microplate Reader (BioTek, Winooski, VT, USA). […] Data were analyzed using a one-way or two-way ANOVA and Tukey's multiple comparisons post-hoc test, with differences between treatments considered significant if p<0.05.

[3] = tested on: Carausius morosus AKH receptor (Carmo-AKHR); assay type: cell-based; conditions: transient Carmo-AKHR, co-expressing murine promiscuous G protein
[4] = tested on: endogenously expressed purinoceptors; assay: ATP positive control in the bioluminescence assay; assay type: cell-based, Chinese hamster; conditions: 50 μM ATP
Method: Synthetic peptide stocks of naturally-occurring AKH-related peptides [corazonin, adipokinetic hormone corazonin-like peptide (ACP)], alanine-substituted analogs of Carmo-HrTH-II, natural C. morosus AKH peptides, and several AKHs from other arthropod species in synthetic form were used for preparation of serial dilutions all of which were prepared in assay media (DMEM-F12 media containing 0.1% bovine serum albumin, 1X antimycotic-antibiotic) and loaded in triplicate or quadruplicate into 96-well white luminescence plates (Greiner Bio-One, Germany). Cells stably expressing Carmo-AKHR and transiently expressing aequorin were loaded with an automated injector unit into each individual well containing different test compounds at various concentrations, including assay media alone (negative control wells) and 50 μM ATP (positive control wells) acting on endogenously expressed purinoceptors ([34], [35]). Immediately after injection of the cells into each well, luminescence was measured for 20 s using a Synergy 2 Multi-Mode Microplate Reader (BioTek, Winooski, VT, USA). […] Data were analyzed using a one-way or two-way ANOVA and Tukey’s multiple comparisons post-hoc test, with differences between treatments considered significant if p<0.05.

CC(C)C[C@H](NC(=O)[C@@H]1CCC(=O)N1)C(=O)N[C@@H](CC(N)=O)C(=O)N[C@@H](Cc1ccccc1)C(=O)N[C@H](C(=O)N1CCC[C@H]1C(=O)N[C@@H](CC(N)=O)C(=O)N[C@@H](Cc1c[nH]c2ccccc12)C(=O)NCC(=O)N[C@@H](CO)C(N)=O)[C@@H](C)O [Phymo-AKH] ([pGlu]LNFTPNWGS-NH2)
Hypertrehalosemic effect in vivo (in words) [1]: absence of function in vivo
EC50 [2]: 5050 nM
Fold-reduction in activity (receptor activation relative to Carmo-HrTH-II) [2]: 68.66 fold

CC(C)C[C@H](NC(=O)[C@@H]1CCC(=O)N1)C(=O)N[C@H](C(=O)N[C@@H](Cc1ccccc1)C(=O)N[C@H](C(=O)N1CCC[C@H]1C(=O)N[C@@H](CC(N)=O)C(=O)N[C@@H](Cc1c[nH]c2ccccc12)C(N)=O)[C@@H](C)O)[C@@H](C)O [Peram-CAH-II] ([pGlu]LTFTPNW-NH2)
Hypertrehalosemic effect in vivo (in words) [1]: only about a third of what the native decapeptide achieved
EC50 [2]: 388 nM
Fold-reduction in activity (receptor activation relative to Carmo-HrTH-II) [2]: 5 fold and 5.28 fold

CC(C)C[C@H](NC(=O)[C@@H]1CCC(=O)N1)C(=O)N[C@H](C(=O)N[C@@H](Cc1ccccc1)C(=O)N[C@H](C(=O)N1CCC[C@H]1C(=O)N[C@@H](CO)C(=O)N[C@@H](Cc1c[nH]c2ccccc12)C(N)=O)[C@@H](C)O)[C@@H](C)O [Aedae-AKH] ([pGlu]LTFTPSW-NH2)
Luminescence relative to assay media (BSA) alone [3]: ~ 3 fold
EC50 [2]: 1030 nM
Fold-reduction in activity (receptor activation relative to Carmo-HrTH-II) [2]: 14 fold and 14.00 fold

CC(C)C[C@H](NC(=O)[C@@H]1CCC(=O)N1)C(=O)N[C@@H](CC(N)=O)C(=O)N[C@@H](Cc1ccccc1)C(=O)N[C@H](C(=O)N1CCC[C@H]1C(=O)N[C@@H](CC(N)=O)C(=O)N[C@@H](Cc1c[nH]c2ccccc12)C(=O)NCC(=O)N[C@H](C(N)=O)[C@@H](C)O)[C@@H](C)O [Locmi-AKH-I] ([pGlu]LNFTPNWGT-NH2)
Hypertrehalosemic effect in vivo (in words) [1]: biological function is impaired
EC50 [2]: 4140 nM

CC(C)C[C@H](NC(=O)[C@@H]1CCC(=O)N1)C(=O)N[C@H](C(=O)N[C@@H](Cc1ccccc1)C(=O)N[C@H](C(=O)N1CCC[C@H]1C(=O)N[C@@H](CC(N)=O)C(=O)N[C@@H](Cc1c[nH]c2ccccc12)C(=O)NCC(=O)N[C@@H](CO)C(N)=O)[C@@H](C)O)[C@@H](C)O [Phyle-CC] ([pGlu]LTFTPNWGS-NH2)
Hypertrehalosemic effect in vivo (in words) [1]: not at all (in vivo) affected
EC50 [2]: 18 nM
Fold-reduction in activity (receptor activation relative to Carmo-HrTH-II) [2]: 0.24 fold

Nc1ncnc2c1ncn2[C@@H]1O[C@H](COP(=O)(O)OP(=O)(O)OP(=O)(O)O)[C@@H](O)[C@H]1O [ATP]
Maximal luminescent response [4]: about 12 000

CC(C)C[C@H](NC(=O)[C@@H]1CCC(=O)N1)C(=O)N[C@H](C(=O)N[C@@H](Cc1ccccc1)C(=O)N[C@H](C(=O)N1CCC[C@H]1C(=O)N[C@@H](CC(N)=O)C(=O)N[C@@H](Cc1c[nH]c2ccccc12)C(=O)NCC(=O)N[C@H](C(N)=O)[C@@H](C)O)[C@@H](C)O)[C@@H](C)O [Carmo-HrTH-II] ([pGlu]LTFTPNWGT-NH2)
EC50 [2]: 73.6 nM

[pGlu]LTATPNWGT-NH2 [Ala^4-analog, alanine-substituted analog of Carmo-HrTH-II, position 4]
Fold-reduction in activity (receptor activation relative to Carmo-HrTH-II) [2]: >1360 fold

From PMC12310481, “Sequence, characterization and pharmacological analyses of the adipokinetic hormone receptor in the stick insect, Carausius morosus” (Frontiers in Endocrinology, 2025)
